Source: patent US20190300832A1, “METHOD AND KIT FOR EXPANDING CIRCULATING TUMOR CELLS IN VITRO” (Taipei Medical University, priority 2018, published 2019)

Key:
[1] = test system: small cell lung cancer; test: Clinical treatment outcome of the patients the circulating tumor cells were taken from; type: in vivo, human; settings: treated clinically
Text: As can be known from FIG. 54, in the presence of cisplatin, etoposide, and Topotecan, the survival rate of the circulating tumor cells 21 derived the blood of the first patient is more than 85%, and there is no significant decrease compared with the control group Ctrl.
As can be known from FIG. 55, in the presence of cisplatin and topotecan, the survival rate of the expanded circulating tumor cells 21 from the second patient is less than 20%, and there is significant decrease compared with the control group Ctrl. […] In combination with the outcome where the patient is treated with cisplatin, etoposide, and Topotecan clinically, it can be further confirmed that the cisplatin and topotecan respond well to small cell lung cancer in the second patients, that is, have therapeutic effect.

[2] = test system: circulating tumor cells derived from patients with small cell lung cancer; test: CellTiter Luminescent cell viability of expanded circulating tumor cells treated with drugs; type: cell-based, human; settings: expanded circulating tumor cells from the second small cell lung cancer patient; FIG. 55; result in words
Description: In some embodiments, the preparation of the cell solution can be performed as follows. 5 ml of blood is sampled respectively patients having breast cancer, pancreatic cancer, and small cell lung cancer. 15 ml of Ficoll-Paque is added to a Leucosep™ centrifuge tube and centrifuged. The blood is diluted in phosphate buffered saline (PBS) and transferred to the Leucosep™ centrifuge tube, followed by centrifugation. After centrifugation, the supernatant in the Leucosep™ centrifuge tube is removed, and the retained lower solution is a monocyte phase. A circulating tumor cell enriched antibody mixture (RosetteSep™ CTC Enrichment Cocktail Containing AntiCD56) is added to the monocyte phase, and mixed at room temperature. After mixing, a PBS buffer containing 2% (v/v) Fetal Bovine Serum (FSB) is added and mixed to give a monocyte solution. Also, the monocyte solution is added to Ficoll-Paque and centrifuged at room temperature. […]
According to the above procedure, the circulating tumor cells 21 are isolated from the blood of two patients with small cell lung cancer and cultured. […] The cell viability was measured by CellTiter Luminescent cell viability and the survival rate is calculated by the following formula:
Cell survival rate (%)=(luminescence density in the treated group/luminescence density in the control group)×100%. […]

Structure (SMILES)	Clinical therapeutic effect on small cell lung cancer ([1]; first patient)	Clinical therapeutic effect on small cell lung cancer ([1]; second patient)	Cell survival rate compared with control group [2]
CC[C@@]1(O)C(=O)OCc2c1cc1n(c2=O)Cc2cc3c(CN(C)C)c(O)ccc3nc2-1 [Topotecan]	no significant therapeutic effect	respond well	–
N.N.[Cl][Pt][Cl] [cisplatin]	no significant therapeutic effect	respond well	–
COc1cc([C@@H]2c3cc4c(cc3[C@@H](O[C@@H]3O[C@@H]5CO[C@@H](C)O[C@H]5[C@H](O)[C@H]3O)[C@H]3COC(=O)[C@H]23)OCO4)cc(OC)c1O [etoposide]	no significant therapeutic effect	–	lower than the control group Ctrl
